The NIST ThermoML archive (doi:10.1016/j.fluid.2016.01.023)
± gives the expanded uncertainty stated by the source.

Assay: mn = molality of the nth substance listed, in mol/kg
Details: 303.15 K, 101 kPa, Liquid, Vibrating tube method

mass density (m1 = 0.01) | mass density (m1 = 0.101) | mass density (m1 = 0.5) | mass density (m1 = 1.001) | mass density (m1 = 1.501) | mass density (m1 = 0.043) | mass density (m1 = 0.1) | mass density (m1 = 0.417) | mass density (m1 = 0.896) | mass density (m1 = 1.454) | mass density (m1 = 0.053) | mass density (m1 = 1.002) | mass density (m1 = 1.502) | Compound
996.13 ± 0.84 kg/m3 | 1007.45 ± 0.85 kg/m3 | 1042.49 ± 0.85 kg/m3 | 1093.14 ± 0.85 kg/m3 | 1147.45 ± 0.86 kg/m3 |  |  |  |  |  |  |  |  | O=C([O-])CCC(=O)C(=O)[O-].[Na+].[Na+] [disodium 2-oxo-glutarate] + O
996.19 ± 0.84 kg/m3 |  |  |  |  | 999.15 ± 0.84 kg/m3 | 1004.02 ± 0.84 kg/m3 | 1030.44 ± 0.84 kg/m3 | 1066.63 ± 0.85 kg/m3 | 1104.02 ± 0.85 kg/m3 |  |  |  | N[C@@H](CCC(=O)[O-])C(=O)O.[Na+] [sodium (S)-2-amino-4-carboxybutanoate] + O
995.66 ± 0.84 kg/m3 | 1000.51 ± 0.84 kg/m3 | 1018.19 ± 0.84 kg/m3 |  |  |  |  |  |  |  | 997.57 ± 0.84 kg/m3 | 1041.67 ± 0.84 kg/m3 | 1065.87 ± 0.84 kg/m3 | CC(=O)C(=O)[O-].[Na+] [sodium pyruvate] + O
